# Test results taken from PubChem BioAssay (NCI).
#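 Each compound was tested at five concentrations against cells in 96-well plates for 48 hours. The concentration for full growth arrest is given as TGI.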
# Test system: OVCAR-4 ovarian
# Test: growth of human tumour cells (NCI), 48 h
row,Structure (SMILES),TGI [µM]
1,COc1ccc2[nH]c3c(c2c1)[C@H]1CCC(C(C)(C)C)C[C@H]1[C@H]1C(=O)N(c2ccccc2)C(=O)[C@@H]31 (stereo partly drawn),14.4
2,COc1cc(C2c3cc4c(cc3C(=O)C3CCC(=O)N32)OCO4)cc(OC)c1O (stereo not drawn),> 50

# Test system: COLO 205 colon
# Test: growth of human tumour cells (NCI), 48 h
row,Structure (SMILES),TGI [µM]
1,CCOC(=O)C1=C(OC(OCC)C(CC)[Se]c2ccccc2)CCC1 (stereo not drawn),> 100
2,CCCc1cc(OC(=O)c2c(O)cc(OC)cc2CCC)cc(O)c1C(=O)O,79.2
3,Cc1ccc(-c2cc(-c3ccccc3)c(C#N)c(=O)[nH]2)cc1,> 100
4,O=[N+]([O-])c1ccc(-c2nn3c(C45CC6CC(CC(C6)C4)C5)nnc3s2)c(Cl)c1,> 100
5,O=[N+]([O-])c1cccc(Nc2nc(Cl)nc(Cl)n2)c1,> 100
6,O=C(Cn1c2ccc(Br)cc2c2nc3ccccc3nc21)Nc1ccccc1,> 100
7,Cc1cc(O)c(/C=N/C(=S)Nc2ccc(S(N)(=O)=O)cc2)c(=O)o1,> 100
8,CC(=O)[C@H]1[C@H](O)C[C@@]2(C)[C@@H]3CCc4cc(O)c(OC5OC(CO)C(O)C(O)C5O)cc4C3(C)C(=O)C[C@]12C (stereo partly drawn),> 100
9,COC(=O)[C@@](NC(=O)OCc1ccccc1)([C@H](C)O)C(F)(F)F,> 100
10,CO/C(=N\N=C\c1ccc(Cl)c(Cl)c1)c1ccncc1,> 10
11,O=c1[nH][nH]c(=O)c2c1ccc1oc3ccccc3c12,> 100
12,COC(=O)/C=C(\C)CCC1SC1(C)C (stereo not drawn),> 100
13,C=C1C2=C(CCCC2)C(=O)OC12CCCCC2,> 100
14,COc1cc(OC)c2c(=O)c3cccc(C)c3n(C)c2c1,> 100
15,COC(=O)C(=O)C(C(=O)C(=O)Nc1ccc(C)cc1C)c1nc2ccc(Cl)cc2[nH]c1=O (stereo not drawn),> 100
16,CC1=CCC(C(C)(C)NC(=O)c2ccccc2)C/C1=N/O (stereo not drawn),> 100
17,Cc1c(/C=N/NC(=S)N2CCCCC2)c(=O)n(-c2ccccc2)n1C,> 100
18,CCSC1=N/C(=C\c2ccco2)C(=O)N1,> 100
19,COc1ccc(-c2nc(Nc3ccccc3)sc2Cc2sc(Nc3ccccc3)nc2-c2ccc(OC)cc2)cc1,> 100
20,CCOC(=O)CCC(NC(=O)c1ccc(NC(OC)c2nc3cc(C(F)(F)F)ccc3nc2-c2ccccc2)cc1)C(=O)OCC (stereo not drawn),35.6
21,CCCCOC/N=C(/N)NC#N,> 100
22,C[C@@H]1CC[C@@H]2[C@@H](C1)O[C@@H]([C@@H](C)OCc1ccccc1)SC2(C)C,32.7
23,Cc1sc2nc3n(c(=O)c2c1C)N=CN(c1ccc(Cl)cc1)C3,> 100
24,COc1ccc2[nH]c3c(c2c1)[C@H]1CCC(C(C)(C)C)C[C@H]1[C@H]1C(=O)N(c2ccccc2)C(=O)[C@@H]31 (stereo partly drawn),> 79.2
25,COc1cc(C2c3cc4c(cc3C(=O)C3CCC(=O)N32)OCO4)cc(OC)c1O (stereo not drawn),> 50

# Test system: SN12C renal
# Test: growth of human tumour cells (NCI), 48 h
row,Structure (SMILES),TGI [µM]
1,CCOC(=O)C1=C(OC(OCC)C(CC)[Se]c2ccccc2)CCC1 (stereo not drawn),47.2
2,Cc1ccc(-c2cc(-c3ccccc3)c(C#N)c(=O)[nH]2)cc1,> 100
3,O=[N+]([O-])c1ccc(-c2nn3c(C45CC6CC(CC(C6)C4)C5)nnc3s2)c(Cl)c1,> 100
4,O=[N+]([O-])c1cccc(Nc2nc(Cl)nc(Cl)n2)c1,> 100
5,CC(Cn1c2c(c3cc(O)ccc31)CCc1ccc(O)cc1-2)N(C)C (stereo not drawn),68.9
6,O=C(Cn1c2ccc(Br)cc2c2nc3ccccc3nc21)Nc1ccccc1,> 100
7,Cc1cc(O)c(/C=N/C(=S)Nc2ccc(S(N)(=O)=O)cc2)c(=O)o1,> 100
8,COc1ccc(-c2nc(-c3cnccn3)n(C3OC(CO)C(O)C3O)n2)cc1 (stereo not drawn),> 10
9,CC(=O)[C@H]1[C@H](O)C[C@@]2(C)[C@@H]3CCc4cc(O)c(OC5OC(CO)C(O)C(O)C5O)cc4C3(C)C(=O)C[C@]12C (stereo partly drawn),> 100
10,O=C(NCCN1CCCCC1)c1cccc(I)c1,> 100
11,CO/C(=N\N=C\c1ccc(Cl)c(Cl)c1)c1ccncc1,> 10
12,O=c1[nH][nH]c(=O)c2c1ccc1oc3ccccc3c12,> 100
13,COC(=O)/C=C(\C)CCC1SC1(C)C (stereo not drawn),> 100
14,C=C1C2=C(CCCC2)C(=O)OC12CCCCC2,> 100
15,COc1cc(OC)c2c(=O)c3cccc(C)c3n(C)c2c1,> 100
16,COC(=O)C(=O)C(C(=O)C(=O)Nc1ccc(C)cc1C)c1nc2ccc(Cl)cc2[nH]c1=O (stereo not drawn),> 100
17,CC1=CCC(C(C)(C)NC(=O)c2ccccc2)C/C1=N/O (stereo not drawn),> 100
18,CCSC1=N/C(=C\c2ccco2)C(=O)N1,> 100
19,COc1ccc(-c2nc(Nc3ccccc3)sc2Cc2sc(Nc3ccccc3)nc2-c2ccc(OC)cc2)cc1,> 100
20,CCOC(=O)CCC(NC(=O)c1ccc(NC(OC)c2nc3cc(C(F)(F)F)ccc3nc2-c2ccccc2)cc1)C(=O)OCC (stereo not drawn),28.2
21,CCCCOC/N=C(/N)NC#N,> 100
22,C[C@@H]1CC[C@@H]2[C@@H](C1)O[C@@H]([C@@H](C)OCc1ccccc1)SC2(C)C,32.3
23,Cc1sc2nc3n(c(=O)c2c1C)N=CN(c1ccc(Cl)cc1)C3,> 100
24,COc1ccc2[nH]c3c(c2c1)[C@H]1CCC(C(C)(C)C)C[C@H]1[C@H]1C(=O)N(c2ccccc2)C(=O)[C@@H]31 (stereo partly drawn),> 44.5
25,COc1cc(C2c3cc4c(cc3C(=O)C3CCC(=O)N32)OCO4)cc(OC)c1O (stereo not drawn),> 50

# Test system: K-562 leukemia
# Test: growth of human tumour cells (NCI), 48 h
row,Structure (SMILES),TGI [µM]
1,CCOC(=O)C1=C(OC(OCC)C(CC)[Se]c2ccccc2)CCC1 (stereo not drawn),> 100
2,CCCc1cc(OC(=O)c2c(O)cc(OC)cc2CCC)cc(O)c1C(=O)O,> 100
3,Cc1ccc(-c2cc(-c3ccccc3)c(C#N)c(=O)[nH]2)cc1,> 100
4,O=[N+]([O-])c1ccc(-c2nn3c(C45CC6CC(CC(C6)C4)C5)nnc3s2)c(Cl)c1,> 100
5,O=[N+]([O-])c1cccc(Nc2nc(Cl)nc(Cl)n2)c1,> 100
6,CC(Cn1c2c(c3cc(O)ccc31)CCc1ccc(O)cc1-2)N(C)C (stereo not drawn),> 100
7,O=C(Cn1c2ccc(Br)cc2c2nc3ccccc3nc21)Nc1ccccc1,> 100
8,COc1ccc(-c2nc(-c3cnccn3)n(C3OC(CO)C(O)C3O)n2)cc1 (stereo not drawn),> 10
9,CC(=O)[C@H]1[C@H](O)C[C@@]2(C)[C@@H]3CCc4cc(O)c(OC5OC(CO)C(O)C(O)C5O)cc4C3(C)C(=O)C[C@]12C (stereo partly drawn),> 100
10,O=C(NCCN1CCCCC1)c1cccc(I)c1,> 100
11,COC(=O)[C@@](NC(=O)OCc1ccccc1)([C@H](C)O)C(F)(F)F,> 100
12,CO/C(=N\N=C\c1ccc(Cl)c(Cl)c1)c1ccncc1,> 10
13,O=c1[nH][nH]c(=O)c2c1ccc1oc3ccccc3c12,> 100
14,COC(=O)/C=C(\C)CCC1SC1(C)C (stereo not drawn),> 100
15,C=C1C2=C(CCCC2)C(=O)OC12CCCCC2,> 100
16,COc1cc(OC)c2c(=O)c3cccc(C)c3n(C)c2c1,59.4
17,CC1=CCC(C(C)(C)NC(=O)c2ccccc2)C/C1=N/O (stereo not drawn),> 100
18,Cc1c(/C=N/NC(=S)N2CCCCC2)c(=O)n(-c2ccccc2)n1C,> 100
19,CCSC1=N/C(=C\c2ccco2)C(=O)N1,> 100
20,COc1ccc(-c2nc(Nc3ccccc3)sc2Cc2sc(Nc3ccccc3)nc2-c2ccc(OC)cc2)cc1,> 100
21,CCOC(=O)CCC(NC(=O)c1ccc(NC(OC)c2nc3cc(C(F)(F)F)ccc3nc2-c2ccccc2)cc1)C(=O)OCC (stereo not drawn),> 26.6
22,CCCCOC/N=C(/N)NC#N,> 100
23,C[C@@H]1CC[C@@H]2[C@@H](C1)O[C@@H]([C@@H](C)OCc1ccccc1)SC2(C)C,36
24,Cc1sc2nc3n(c(=O)c2c1C)N=CN(c1ccc(Cl)cc1)C3,> 100
25,COc1ccc2[nH]c3c(c2c1)[C@H]1CCC(C(C)(C)C)C[C@H]1[C@H]1C(=O)N(c2ccccc2)C(=O)[C@@H]31 (stereo partly drawn),> 91.5
26,COc1cc(C2c3cc4c(cc3C(=O)C3CCC(=O)N32)OCO4)cc(OC)c1O (stereo not drawn),> 50

# Test system: NCI-H460 lung
# Test: growth of human tumour cells (NCI), 48 h
row,Structure (SMILES),TGI [µM]
1,CCOC(=O)C1=C(OC(OCC)C(CC)[Se]c2ccccc2)CCC1 (stereo not drawn),> 100
2,CCCc1cc(OC(=O)c2c(O)cc(OC)cc2CCC)cc(O)c1C(=O)O,76.6
3,Cc1ccc(-c2cc(-c3ccccc3)c(C#N)c(=O)[nH]2)cc1,> 100
4,O=[N+]([O-])c1ccc(-c2nn3c(C45CC6CC(CC(C6)C4)C5)nnc3s2)c(Cl)c1,> 100
5,O=[N+]([O-])c1cccc(Nc2nc(Cl)nc(Cl)n2)c1,> 100
6,CC(Cn1c2c(c3cc(O)ccc31)CCc1ccc(O)cc1-2)N(C)C (stereo not drawn),31.8
7,O=C(Cn1c2ccc(Br)cc2c2nc3ccccc3nc21)Nc1ccccc1,> 100
8,Cc1cc(O)c(/C=N/C(=S)Nc2ccc(S(N)(=O)=O)cc2)c(=O)o1,> 100
9,COc1ccc(-c2nc(-c3cnccn3)n(C3OC(CO)C(O)C3O)n2)cc1 (stereo not drawn),> 10
10,CC(=O)[C@H]1[C@H](O)C[C@@]2(C)[C@@H]3CCc4cc(O)c(OC5OC(CO)C(O)C(O)C5O)cc4C3(C)C(=O)C[C@]12C (stereo partly drawn),> 100
11,O=C(NCCN1CCCCC1)c1cccc(I)c1,> 100
12,COC(=O)[C@@](NC(=O)OCc1ccccc1)([C@H](C)O)C(F)(F)F,> 100
13,CO/C(=N\N=C\c1ccc(Cl)c(Cl)c1)c1ccncc1,> 10
14,O=c1[nH][nH]c(=O)c2c1ccc1oc3ccccc3c12,> 100
15,COC(=O)/C=C(\C)CCC1SC1(C)C (stereo not drawn),> 100
16,C=C1C2=C(CCCC2)C(=O)OC12CCCCC2,> 100
17,COc1cc(OC)c2c(=O)c3cccc(C)c3n(C)c2c1,> 100
18,COC(=O)C(=O)C(C(=O)C(=O)Nc1ccc(C)cc1C)c1nc2ccc(Cl)cc2[nH]c1=O (stereo not drawn),> 100
19,CC1=CCC(C(C)(C)NC(=O)c2ccccc2)C/C1=N/O (stereo not drawn),> 100
20,Cc1c(/C=N/NC(=S)N2CCCCC2)c(=O)n(-c2ccccc2)n1C,> 100
21,COc1ccc(-c2nc(Nc3ccccc3)sc2Cc2sc(Nc3ccccc3)nc2-c2ccc(OC)cc2)cc1,> 100
22,CCOC(=O)CCC(NC(=O)c1ccc(NC(OC)c2nc3cc(C(F)(F)F)ccc3nc2-c2ccccc2)cc1)C(=O)OCC (stereo not drawn),26.2
23,CCCCOC/N=C(/N)NC#N,> 100
24,C[C@@H]1CC[C@@H]2[C@@H](C1)O[C@@H]([C@@H](C)OCc1ccccc1)SC2(C)C,49.1
25,Cc1sc2nc3n(c(=O)c2c1C)N=CN(c1ccc(Cl)cc1)C3,> 100
26,COc1ccc2[nH]c3c(c2c1)[C@H]1CCC(C(C)(C)C)C[C@H]1[C@H]1C(=O)N(c2ccccc2)C(=O)[C@@H]31 (stereo partly drawn),> 53.6
27,COc1cc(C2c3cc4c(cc3C(=O)C3CCC(=O)N32)OCO4)cc(OC)c1O (stereo not drawn),> 50

# Test system: NCI/ADR-RES ovarian
# Test: growth of human tumour cells (NCI), 48 h
row,Structure (SMILES),TGI [µM]
1,O=[N+]([O-])c1ccc(-c2nn3c(C45CC6CC(CC(C6)C4)C5)nnc3s2)c(Cl)c1,> 100
2,CC(Cn1c2c(c3cc(O)ccc31)CCc1ccc(O)cc1-2)N(C)C (stereo not drawn),41.9
3,O=C(Cn1c2ccc(Br)cc2c2nc3ccccc3nc21)Nc1ccccc1,45.1
4,Cc1cc(O)c(/C=N/C(=S)Nc2ccc(S(N)(=O)=O)cc2)c(=O)o1,> 100
5,COc1ccc(-c2nc(-c3cnccn3)n(C3OC(CO)C(O)C3O)n2)cc1 (stereo not drawn),> 10
6,CC(=O)[C@H]1[C@H](O)C[C@@]2(C)[C@@H]3CCc4cc(O)c(OC5OC(CO)C(O)C(O)C5O)cc4C3(C)C(=O)C[C@]12C (stereo partly drawn),> 100
7,O=C(NCCN1CCCCC1)c1cccc(I)c1,> 100
8,COC(=O)[C@@](NC(=O)OCc1ccccc1)([C@H](C)O)C(F)(F)F,> 100
